Source: patent US10604509B2, “Nrf2 regulators” (GlaxoSmithKline Intellectual Property Development Limited, priority 2015, dated 2020)
Counter-ions that a name gives are not always drawn. Like-named read-outs stand apart in the source and are kept apart here.

System: NQO1 specific enzyme activity in BEAS-2B cells
Assay: BEAS-2B NQO1 MTT assay
Type: cell-based
Conditions: BEAS-2B cells, 48 hours with compound, MTT readout, read-out: EC50 of NQO1 specific activity induction
Source text: NAD(P)H:quinone oxidoreductase 1 (NQO1), also called DT diaphorase, is a homodimeric FAD-containing enzyme that catalyzes obligatory NAD(P)H-dependent two-electron reductions of quinones and protects cells against the toxic and neoplastic effects of free radicals and reactive oxygen species arising from one-electron reductions. The transcription of NQO1 is finely regulated by NRF2, and thus NQO1 activity is a good marker for NRF2 activation. On day one, frozen BEAS-2B cells (ATCC) are thawed in a water bath, counted, and re-suspended at a concentration of 250,000 cells/mL. Fifty microliters of cells are plated in 384 well black clear-bottomed plates. Plates are incubated at 37° C., 5% CO2 overnight. On day two, plates are centrifuged and 50 nL of compound or controls are added to the cells. Plates are then incubated at 37° C., 5% CO2 for 48 hours. On day four, medium is aspirated from the plate and crude cell lysates are made by adding 13 uL of 1× Cell Signaling Technologies lysis buffer with 1 Complete, Mini, EDTA-free Protease Inhibitor Tablet (Roche) for each 10 mL of lysis buffer. After lysis plates are incubated for 20 minutes at room temperature. Two microliters of lysate are removed for use in Cell Titer Glo assay (Promega) and MTT cocktail is prepared (Prochaska et. al. 1998) for measurement of NQO1 activity. Fifty microliters of MTT cocktail is added to each well, plate is centrifuged, and analyzed on an Envision plate reader (Perkin Elmer) using Absorbance 570 nm label for 30 minutes. Product formation is measured kinetically and the EC50 of NQO1 specific activity induction is calculated by plotting the change in absorbance (Delta OD/min) versus the log of compound concentration followed by 3-parameter fitting.

SMILES | EC50 [nM] | EC50 (Homo sapiens, BEAS-2B, 48 h) [nM]
CC[C@@H]1CN(Cc2cc(C(CCc3cn(CC)nn3)C(C)C(=O)O)ccc2C)Cc2ccccc2O1 (single isomer, unassigned; isomer 2) [Example 119] | 10 to 100 | –
CCCn1cc(CCC(c2ccc(C)c(Cn3ccnc3CN3CCC(CC)CC3)c2)C(C)(C)C(=O)O)nn1 (single isomer, unassigned) [Example 247, 3-(3-((2-((4-Ethylpiperidin-1-yl)methyl)-1H-imidazol-1-yl)methyl)-4-methylphenyl)-2,2-dimethyl-5-(1-propyl-1H-1,2,3-triazol-4-yl)pentanoic Acid] | 1 to 10 | –
CC[C@@H]1CN(Cc2cc(C(Cc3nnn[nH]3)c3ccc4c(nnn4C)c3C)ccc2C)Cc2ccccc2O1 (stereo partly drawn) [Example 112, (2R)-4-(5-(1-(1,4-dimethyl-1H-benzo[d][1,2,3]triazol-5-yl)-2-(1H-tetrazol-5-yl)ethyl)-2-methylbenzyl)-2-ethyl-2,3,4,5-tetrahydrobenzo[f][1,4]oxazepine, Formic Acid Salt] | – | 100 to 1000
CCC1CN(Cc2cc(C(CC(=O)O)c3ccc4c(nnn4C)c3C)ccc2C)Cc2ccc(OC)cc2O1 (stereo not shown) [Example 84, 3-(1,4-Dimethyl-1H-benzo[d][1,2,3]triazol-5-yl)-3-(3-((2-ethyl-8-methoxy-2,3-dihdyrobenzo[f][1,4]oxazepin-4(5H)-yl)methyl)-4-methylphenyl)propanoic acid, form acid salt] | – | 100 to 1000
CC[C@@H]1CN(Cc2cc([C@H](c3ccc4c(nnn4C)c3C)C(C)(C)C(=O)O)ccc2C)Cc2cnccc2O1 [Example 204, (R)-3-(1,4-Dimethyl-1H-benzo[d][1,2,3]triazol-5-yl)-3-(3-(((R)-2-ethyl-2,3-dihydropyrido[3,4-f][1,4]oxazepin-4(5H)-yl)methyl)-4-methylphenyl)-2,2-dimethylpropanoic Acid, 0.5 Ethanol] | – | 100 to 1000
CC[C@@H]1CN(Cc2cc(C(CCc3cn(CC)nn3)C(C)C(=O)O)ccc2C)Cc2ccccc2O1 (single isomer, unassigned; isomer 1) [Example 118] | 1000 to 10000 | –
Cc1ccc(C(c2ccc3c(nnn3C)c2C)C(C)(C)C(=O)O)cc1CN1Cc2cnccc2OC(C)(C)C1 (stereo not shown) [Example 22, 3-(1,4-Dimethyl-1H-benzo[d][1,2,3]triazol-5-yl)-3-(3-((2,2-dimethyl-2,3-dihydropyrido[3,4-f][1,4]oxazepin-4(5H)-yl)methyl)-4-methylphenyl)-2,2-dimethylpropanoic Acid, Trifluoroacetic Acid] | – | 1 to 10
CC[C@@H]1CN(Cc2cc([C@H](c3ccc4c(nnn4C)c3C)C(C)(C)C(=O)O)ccc2C)Cc2ccccc2O1 [Example 27, (R)-3-(1,4-Dimethyl-1H-benzo[d][1,2,3]triazol-5-yl)-3-(3-(((R)-2-ethyl-2,3-dihydrobenzo[f][1,4]oxa-zepin-4(5H)-yl)methyl)-4-methylphenyl)-2,2-dimethylpropanoic acid] | – | 100 to 1000
Cc1ccc([C@@H](CC(=O)O)c2ccc3c(nnn3C)c2C)cc1CN1Cc2ncccc2OC(C)(C)C1 [Example 169, (R)-3-(1,4-Dimethyl-1H-benzo[d][1,2,3]triazol-5-yl)-3-(3-((2,2-dimethyl-2,3-dihydropyrido[2,3-f][1,4]oxazepin-4(5H)-yl)methyl)-4-methylphenyl)propanoic acid, 0.5 Formic acid salt] | – | 10 to 100
CC[C@@H]1CN(Cc2cc(C(c3ccc4c(nnn4C)c3C)C(C)(C)C(=O)O)ccc2C)Cc2cccc(F)c2O1 (stereo partly drawn) [Example 34, 3-(1,4-Dimethyl-1H-benzo[d][1,2,3]triazol-5-yl)-3-(3-(((R)-2-ethyl-9-fluoro-2,3-dihydrobenzo[f][1,4]oxaz-epin-4(5H)-yl)methyl)-4-methylphenyl)-2,2-dimethylpropanoic acid, formic acid salt] | – | 100 to 1000
Cc1ccc(C(c2ccc3c(nnn3C)c2C)C(C)(C)C(=O)O)cc1Cn1ccnc1CN1CCOCC1 (stereo not shown) [Example 142, 3-(1,4-Dimethyl-1H-benzo[d][1,2,3]triazol-5-yl)-2,2-dimethyl-3-(4-methyl-3-((2-(morpholinomethyl)-1H-imidazol-1-yl)methyl)phenyl) propanoic acid, trifluoroacetic acid salt] | – | 100 to 1000
Cc1ccc(C(CC(=O)O)c2ccc3c(nnn3C)c2C)cc1CN1Cc2cccnc2OC(C)(C)C1 (stereo not shown) [Example 96, 3-(1,4-Dimethyl-1H-benzo[d][1,2,3]triazol-5-yl)-3-(3-((2,2-dimethyl-2,3-dihydropyrido[3,2-f][1,4]oxazepin-4(5H)-yl)methyl)-4-methylphenyl)propanoic Acid] | – | 100 to 1000
Cc1ccc(C(CC(=O)O)c2ccc3c(nnn3C)c2C)cc1CN(C)Cc1ccccc1Br (stereo not shown) [Example 15, Ammonium 3-(3-(((2-bromobenzyl)(methyl)amino)methyl)-4-methylphenyl)-3-(1,4-dimethyl-1H-benzo[d][1,2,3]triazol-5-yl)propanoate] | – | 1000 to 10000
CC[C@@H]1CN(Cc2cc([C@H](CC(=O)O)c3ccc4c(nnn4CC)c3C)ccc2C)Cc2ccccc2O1 [Example 68, (S)-3-(3-(((R)-2-Ethyl-2,3-dihydrobenzo[f][1,4]oxazepin-4(5H)-yl)methyl)-4-methylphenyl)-3-(1-ethyl-4-methyl-1H-benzo[d][1,2,3]triazol-5-yl)propanoic Acid, Formic Acid Salt] | – | 10 to 100
CC[C@@H]1CN(Cc2cc([C@H](c3ccc4c(nnn4CC)c3C)[C@H](C)C(=O)O)ccc2C)Cc2ccccc2O1 [Example 101, Ammonium (2S,3R)-3-(3-(((R)-2-ethyl-2,3-dihydrobenzo[f][1,4]oxazepin-4(5H)-yl)methyl)-4-methylphenyl)-3-(1-ethyl-4-methyl-1H-benzo[d][1,2,3]triazol-5-yl)-2-methylpropanate] | < 1 | –
Cc1ccc([C@H](c2ccc3c(nnn3C)c2C)[C@H](C)C(=O)O)cc1CN1Cc2cnccc2OC(C)(C)C1 [Example 198, (2S,3R)-3-(1,4-Dimethyl-1H-benzo[d][1,2,3]triazol-5-yl)-3-(3-((2,2-dimethyl-2,3-dihydropyrido[3,4-f][1,4]oxazepin-4(5H)-yl)methyl)-4-methylphenyl)-2-methylpropanoic acid, 0.1 formic acid salt] | – | 10 to 100
CC[C@@H]1CN(Cc2cc([C@H](CC(=O)O)c3ccc4c(nnn4CC)c3F)ccc2C)Cc2cnccc2O1 [Example 53, (S)-3-(3-(((R)-2-Ethyl-2,3-dihydropyrido[3,4-f][1,4]oxazepin-4(5H)-yl)methyl)-4-methylphenyl)-3-(1-ethyl-4-fluoro-1H-benzo[d][1,2,3]triazol-5-yl)propanoic acid] | – | 100 to 1000
Cc1ccc(C(CC(=O)NS(C)(=O)=O)c2ccc3c(nnn3C)c2C)cc1CN1Cc2ccccc2OC(C)(C)C1 (stereo not shown) [Example 187, 3-(1,4-Dimethyl-1H-benzo[d][1,2,3]triazol-5-yl)-3-(3-((2,2-dimethyl-2,3-dihydrobenzo[f][1,4]oxazepin-4(5H)-yl)methyl)-4-methylphenyl)-N-(methylsulfonyl)propanamide] | – | 100 to 1000
Cc1ccc(C(CC(=O)O)c2ccc3c(nnn3C)c2C)cc1CN1CCOc2ccc(C#N)cc2C1 (stereo not shown) [Example 14, Ammonium 3-(3-((7-cyano-2,3-dihydrobenzo[f][1,4]oxazepin-4(5H)-yl)methyl)-4-methylphenyl)-3-(1,4-dimethyl-1H-benzo[d][1,2,3]triazol-5-yl)propanoate] | – | 1000 to 10000
